# US10851112B2, “Anti-HCMV virus compound” (MEDSHINE DISCOVERY INC., priority 2016, dated 2020)
# pEC50: −log10 of the molar value.
# Test system: US3-6-EGFP-HCMV-AD169 viruses
# Assay: Fluorescence decay assay against human cytomegalovirus
# Format: cell-based, human cytomegalovirus (HCMV)
# Conditions: Human betaherpesvirus 5, AD169, MRC5, 240 h
# Description: Fluorescence Decay Assay Against Human Cytomegalovirus
# The antiviral activity of the compound against human cytomegalovirus (HCMV) was evaluated by determining the half maximal effective concentration (EC50) of the compound. The HCMV used in this assay was inserted with enhanced green fluorescent protein (EGFP) by gene recombination, so the viral replication in cells could be reflected by the expression level of GFP. The inhibitory activity of the compound on HCMV GFP expression was evaluated by determining the fluorescence intensity in the wells of different concentrations of the compound using a high content cell analysis platform Acumen eX3.
# Fluorescence Decay Assay Against HCMV
# MRC5 cells were inoculated into a black 96-well cell culture plate at a density of 20,000 cells per well. The plate was incubated overnight in a 37° C., 5% CO2 incubator. US3-6-EGFP-HCMV-AD169 viruses were added to the cell culture well at a certain MOI (0.003-0.1) and the plate was incubated for 3 hours in a 37° C., 5% CO2 incubator. After adsorption of viruses, the medium containing viruses was aspirated and 200 μL of cell culture medium containing different concentrations of the compound (4-fold dilution, 6 test concentrations) was added. The final concentration of DMSO in the medium was 1%. Virus control wells (with DMSO added, but no compound was added) and inhibition control wells (with a high concentration of control compound added) were set. The cell plate was incubated for 10 days in a 37° C., 5% CO2 incubator and the liquid was renewed on the 4th day and 7th day. After 10 days of culture, the fluorescence intensity was determined using a high content cell analysis platform Acumen eX3 (TTP LabTech). The original data was used for calculating the antiviral activity of the compound.
# The inhibition % was imported into GraphPad Prism software for data processing to give a corresponding dose-response curve for the compound and the EC50 of the test compound was obtained.
row,SMILES,pEC50
1,"COc1cccc(N2CCN(C3=Nc4c(csc4F)[C@@H](CC(=O)O)N3c3cc(C(F)(F)F)ccc3OC)CC2)c1 (single isomer, unassigned) [WX-075]",6.53
2,"COc1cccc(N2CCN(C3=Nc4c(csc4F)[C@H](CC(=O)O)N3c3cc(C(F)(F)F)ccc3OC)CC2)c1 (single isomer, unassigned) [WX-076]",9.00
3,"COc1cccc(N2CCN(C3=Nc4ccsc4[C@@H](CC(=O)O)N3c3cc(C(F)(F)F)ccc3OC)CC2)c1 (single isomer, unassigned) [WX-087]",< 6.00
4,"COc1ccc(C(F)(F)F)cc1N1C(N2CCC(F)(c3ccc(F)cc3)CC2)=Nc2ccsc2[C@H]1CC(=O)O (single isomer, unassigned) [WX-089]",< 6.00
5,"COc1ccc(C(F)(F)F)cc1N1C(N2CCC(F)(c3ccc(F)cc3)CC2)=Nc2ccsc2[C@@H]1CC(=O)O (single isomer, unassigned) [WX-090]",7.10
6,"COc1cc(N2CCN(C3=Nc4c(csc4F)[C@H](CC(=O)O)N3c3cc(C(F)(F)F)ccc3OC)CC2)ccn1 (single isomer, unassigned) [WX-097]",9.00
7,"COc1cc(N2CCN(C3=Nc4c(csc4F)[C@@H](CC(=O)O)N3c3cc(C(F)(F)F)ccc3OC)CC2)ccn1 (single isomer, unassigned) [WX-098]",7.51
8,"COc1ccc(C(F)(F)F)cc1N1C(N2CCC(F)(c3ccc(F)cc3)CC2)=Nc2c(csc2F)[C@@H]1CC(=O)O (single isomer, unassigned) [WX-099]",7.62
9,"COc1ccc(C(F)(F)F)cc1N1C(N2CCC(F)(c3ccc(F)cc3)CC2)=Nc2c(csc2F)[C@H]1CC(=O)O (single isomer, unassigned) [WX-100]",7.14
10,"COc1cccc(N2CCN(C3=Nc4cc(Cl)sc4[C@@H](CC(=O)O)N3c3cc(C(F)(F)F)ccc3OC)CC2)c1 (single isomer, unassigned) [WX-106]",< 6.00
11,"COc1cccc(N2CCN(C3=Nc4cc(Cl)sc4[C@H](CC(=O)O)N3c3cc(C(F)(F)F)ccc3OC)CC2)c1 (single isomer, unassigned) [WX-107]",8.40
12,"COc1cc(N2CCN(C3=Nc4ccsc4[C@@H](CC(=O)O)N3c3cc(C(F)(F)F)ccc3OC)CC2)ccn1 (single isomer, unassigned) [WX-108]",6.47
13,"COc1ccc(C(F)(F)F)cc1N1C(N2CCN(c3ccc(F)cc3)CC2)=Nc2c(csc2F)[C@@H]1CC(=O)O (single isomer, unassigned) [WX-112]",9.00
14,"COc1ccc(C(F)(F)F)cc1N1C(N2CCN(c3ccc(F)cc3)CC2)=Nc2c(csc2F)[C@H]1CC(=O)O (single isomer, unassigned) [WX-113]",6.97
15,"COc1ccnc(N2CCN(C3=Nc4c(csc4F)[C@H](CC(=O)O)N3c3cc(C(F)(F)F)ccc3OC)C[C@H]2C)n1 (single isomer, unassigned) [WX-129]",7.85
16,"COc1ccnc(N2CCN(C3=Nc4c(csc4F)[C@@H](CC(=O)O)N3c3cc(C(F)(F)F)ccc3OC)C[C@H]2C)n1 (single isomer, unassigned) [WX-130]",< 7.00
17,"COc1cccc(N2CCN(C3=Nc4c(csc4F)[C@@H](CC(=O)O)N3c3cc(C(F)(F)F)ccc3OC)C[C@H]2C)c1 (single isomer, unassigned) [WX-131]",7.26
18,"COc1cncc(N2CCN(C3=Nc4c(csc4F)[C@H](CC(=O)O)N3c3cc(C(F)(F)F)ccc3OC)C[C@H]2C)c1 (single isomer, unassigned) [WX-133]",7.77
19,"COc1cncc(N2CCN(C3=Nc4c(csc4F)[C@@H](CC(=O)O)N3c3cc(C(F)(F)F)ccc3OC)C[C@H]2C)c1 (single isomer, unassigned) [WX-134]",< 6.00
20,"COc1cccc(N2CCN(C3=Nc4ccsc4[C@@H](CC(=O)O)N3c3cc(C(F)(F)F)ccc3OC)C[C@H]2C)c1 (single isomer, unassigned) [WX-135]",6.03
21,"COc1cncc(N2CCN(C3=Nc4ccsc4[C@H](CC(=O)O)N3c3cc(C(F)(F)F)ccc3OC)C[C@H]2C)c1 (single isomer, unassigned) [WX-137]",7.51
22,"COc1cncc(N2CCN(C3=Nc4ccsc4[C@@H](CC(=O)O)N3c3cc(C(F)(F)F)ccc3OC)C[C@H]2C)c1 (single isomer, unassigned) [WX-138]",< 6.00

row,SMILES,pEC50
1,"COc1ccnc(N2CCN(C3=Nc4ccsc4[C@@H](CC(=O)O)N3c3cc(C(F)(F)F)ccc3OC)C[C@H]2C)c1 (single isomer, unassigned) [WX-140]",6.84
2,"COc1cc(N2CCN(C3=Nc4ccsc4[C@@H](CC(=O)O)N3c3cc(C(F)(F)F)ccc3OC)C[C@H]2C)ccn1 (single isomer, unassigned) [WX-142]",7.25
3,"COc1cc(N2CCN(C3=Nc4ccsc4[C@@H](CC(=O)O)N3c3cc(C(F)(F)F)ccc3OC)C[C@H]2C)ncn1 (single isomer, unassigned) [WX-144]",6.58
4,"COc1ccnc(N2CCN(C3=Nc4c(csc4F)[C@@H](CC(=O)O)N3c3cc(C(F)(F)F)ccc3OC)C[C@H]2C)c1 (single isomer, unassigned) [WX-146]",6.45
5,"COc1cc(N2CCN(C3=Nc4c(csc4F)[C@@H](CC(=O)O)N3c3cc(C(F)(F)F)ccc3OC)C[C@H]2C)ccn1 (single isomer, unassigned) [WX-148]",7.92
6,"COc1cc(N2CCN(C3=Nc4c(csc4F)[C@@H](CC(=O)O)N3c3cc(C(F)(F)F)ccc3OC)C[C@H]2C)ncn1 (single isomer, unassigned) [WX-150]",7.70
7,"COc1cc(N2[C@H](C)CN(C3=Nc4ccsc4[C@@H](CC(=O)O)N3c3cc(C(F)(F)F)ccc3OC)C[C@@H]2C)ccn1 (single isomer, unassigned) [WX-160]",7.35
8,"CC[C@@H]1CN(C2=Nc3ccsc3[C@@H](CC(=O)O)N2c2cc(C(F)(F)F)ccc2OC)CCN1c1cccc(OC)c1 (single isomer, unassigned) [WX-169]",< 6.27
9,"CC[C@@H]1CN(C2=Nc3ccsc3[C@H](CC(=O)O)N2c2cc(C(F)(F)F)ccc2OC)CCN1c1cccc(OC)c1 (single isomer, unassigned) [WX-170]",9.58
10,"COc1cccc(N2CCN(C3=Nc4ccsc4[C@@H](CC(=O)O)N3c3cc(C(F)(F)F)ccc3OC)C[C@H]2CF)c1 (single isomer, unassigned) [WX-171]",< 8.00
11,"COc1cccc(N2CCN(C3=Nc4ccsc4[C@H](CC(=O)O)N3c3cc(C(F)(F)F)ccc3OC)C[C@H]2CF)c1 (single isomer, unassigned) [WX-172]",10.00
12,"COc1cc(N2CCN(C3=Nc4cc(C)sc4[C@H](CC(=O)O)N3c3cc(C(F)(F)F)ccc3OC)C[C@H]2C)ccn1 (single isomer, unassigned) [WX-173]",9.07
13,"COc1cc(N2CCN(C3=Nc4cc(C)sc4[C@@H](CC(=O)O)N3c3cc(C(F)(F)F)ccc3OC)C[C@H]2C)ccn1 (single isomer, unassigned) [WX-174]",< 8.00
14,"COc1cc(N2[C@H](C)CN(C3=Nc4ccsc4[C@H](CC(=O)O)N3c3cc(C(F)(F)F)ccc3OC)C[C@H]2C)ccn1 (single isomer, unassigned) [WX-196]",8.72
15,"COc1cc(N2[C@H](C)CN(C3=Nc4ccsc4[C@@H](CC(=O)O)N3c3cc(C(F)(F)F)ccc3OC)C[C@H]2C)ccn1 (single isomer, unassigned) [WX-197]",< 8.00
16,"COc1cc(N2[C@H](C)CN(C3=Nc4cscc4[C@H](CC(=O)O)N3c3cc(C(F)(F)F)ccc3OC)C[C@@H]2C)ccn1 (single isomer, unassigned) [WX-198]",9.15
17,"COc1cc(N2[C@H](C)CN(C3=Nc4cscc4[C@@H](CC(=O)O)N3c3cc(C(F)(F)F)ccc3OC)C[C@@H]2C)ccn1 (single isomer, unassigned) [WX-199]",< 8.00
18,"COc1cc(N2CCN(C3=Nc4ccsc4[C@@H](CC(=O)O)N3c3cc(C(F)(F)F)ccc3OC)C[C@H]2C)ccc1F (single isomer, unassigned) [WX-200]",< 8.00
19,"COc1cc(N2CCN(C3=Nc4ccsc4[C@H](CC(=O)O)N3c3cc(C(F)(F)F)ccc3OC)C[C@H]2C)ccc1F (single isomer, unassigned) [WX-201]",9.28
20,"COc1cccc(N2CCN(C3=Nc4cscc4[C@@H](CC(=O)O)N3c3cc(C(F)(F)F)ccc3OC)C[C@H]2C)c1 (single isomer, unassigned) [WX-203]",< 8.00
21,"COc1cccc(N2CCN(C3=Nc4cscc4[C@H](CC(=O)O)N3c3cc(C(F)(F)F)ccc3OC)C[C@H]2C)c1 (single isomer, unassigned) [WX-204]",9.76
